This assay has as its system Leiomyosarcoma Tumorzell-Linie SK-UT-1B. Kind of assay: Test 2: inhibition of proliferation of cultured human tumour cells (14C-thymidine incorporation). Format: cell-based. The settings on record: Skut1B, SK-UT-1B cells, 48 h incubation with compound, then a further 24 h with 14C-thymidine, measured in duplicate, read-out: Hemmung der SKUT-1B-Proliferation IC50. An excerpt: Inhibierung der Profileration von kultivierten humanen Tumorzellen
Zellen der Leiomyosarcoma Tumorzell-Linie SK-UT-1B (erhalten von der American Type Culture Collection (ATCC)) wurden in Minimum Essential Medium mit nicht essentiellen Aminosäuren (Gibco), ergänzt mit Natrium-Pyruvat (1 mMol), Glutamin (2 mMol) und 10% fötalem Rinderserum (Gibco) kultiviert und in der log-Wachstumsphase geerntet. Anschließend wurden die SK-UT-1B-Zellen in Cytostar® multi-well Platten (Amersham) mit einer Dichte von 4000 cells per well eingebracht und über Nacht in einem Inkubator inkubiert. Verschiedene Konzentrationen der Verbindungen (gelöst in DMSO; Endkonzentration: <1%) wurden zu den Zellen zugegeben. Nach 48 Stunden Inkubation wurde ^14C-Thymidin (Amersham) zu jedem well zugesetzt, und es wurde weitere 24 Stunden inkubiert. Die Menge an ^14C-Thymidin, die in Gegenwart des Inhibitors in die Tumorzellen eingebaut wurde und die die Zahl der Zellen in der S-Phase repräsentiert, wurde in einem Wallace 1450 Microbeta Flüssig Scintillations Zähler gemessen. IC50-Werte für die Inhibierung der Proliferation (= Inhibierung von eingebautem ^14C-Thymidin) wurden - unter Korrektur für die Hintergrundstrahlung - berechnet. Alle Messungen wurden zweifach ausgeführt.
For the compound `CN(C)Cc1ccc(N/C(=C2\C(=O)Nc3ccc(C(N)=O)cc32)c2ccccc2)cc1` [Beispiel 4(62), 3-Z-[1-(4-Dimethylaminomethyl-phenylamino)-1-phenyl-methylen]-5-amido-2-indolinon], the IC50 was found to be 50 nM.

`NC(=O)c1ccc2c(c1)/C(=C(/Nc1ccccc1)c1ccccc1)C(=O)N2` [Beispiel 4(2), 3-Z-(1-Phenylamino-1-phenyl-methylen)-5-amido-2-indolinon]: the IC50 came out at 170 nM.

As to `NC(=O)c1ccc2c(c1)/C(=C(/Nc1ccc(CN3CCCCCC3)cc1)c1ccccc1)C(=O)N2` [Beispiel 4(54), 3-Z-[1-(4-Hexamethyleniminomethyl-phenylamino)-1-phenylmethylen]-5-amido-2-indolinon-trifluoracetat], the IC50 came out at 30 nM.

For the compound `NC(=O)c1ccc2c(c1)/C(=C(/Nc1ccc(CNCc3ccccc3)cc1)c1ccccc1)C(=O)N2` [4(122), 3-Z-[1-(4-(N-(Phenyl-methyl)-aminomethyl)-phenylamino)-1-phenyl-methylen]-5-amido-2-indolinon-trifluoracetat], the IC50 amounted to 40 nM.

As for `NC(=O)c1ccc2c(c1)/C(=C(/Nc1ccc(Br)cc1)c1ccccc1)C(=O)N2` [Beispiel 4(14), 3-Z-[1-(4-Brom-phenylamino)-1-phenyl-methylen]-5-amido-2-indolinon], the IC50 was determined as 180 nM.

Take `NC(=O)c1ccc2c(c1)/C(=C(/Nc1ccc(CN3CCCCC3)cc1)c1ccccc1)C(=O)N2` [Beispiel 4(53), 3-Z-[1-(4-Piperidinomethyl-phenylamino)-1-phenyl-methylen] -5-amido-2-indolinon-trifluoracetat]: the IC50 is 10 nM.

Regarding `CCN(CC)CCCOc1ccc(N/C(=C2\C(=O)Nc3ccc(C(N)=O)cc32)c2ccccc2)cc1` [4(129), 3-Z-[1-(4-(3-Diethylamino-propoxy)-phenylamino)-1-phenylmethylen] -5-amido-2-indolinon-trifluoracetat], the IC50 stood at 40 nM.

`NC(=O)c1ccc2c(c1)/C(=C(/Nc1ccc(CN3CCC(Cc4ccccc4)CC3)cc1)c1ccccc1)C(=O)N2` [Beispiel 4(60), 3-Z-[1-(4-(4-Benzyl-piperidinomethyl)-phenylamino)-1-phenyl-methylen]-5-amido-2-indolinon]: the IC50 amounted to 30 nM.

Take `CCCCNCc1ccc(N/C(=C2\C(=O)Nc3ccc(C(N)=O)cc32)c2ccccc2)cc1` [4(120), 3-2-[1-(4-(N-Butyl-aminomethyl)-phenylamino)-1-phenylmethylen]-5-amido-2-indolinon-trifluoracetat]: the IC50 stood at 40 nM.

Consider `CN(Cc1ccccc1)Cc1ccc(N/C(=C2\C(=O)Nc3ccc(C(N)=O)cc32)c2ccccc2)cc1` [Beispiel 4(94), 3-Z-[1-(4-(N-Methyl-N-benzyl-amino-methyl)-phenylamino)-1-phenyl-methylen]-5-amido-2-indolinon-trifluoracetat], for which the IC50 came out at 30 nM.
